Experiments:
[1] = DPPH radical scavenging assay; format: biochemical; settings: 517 nm
BSA = target: T1, BSA (Bos taurus, UniProt P02769); assay: BSA binding by fluorescence emission titration; design: species or system bovine; settings: for KSV (Stern-Volmer binding constant), BSA binding, Method–I / Kass (association binding constant), BSA binding, Stern–Volmer Method–II / n (number of binding sites), BSA binding, Stern–Volmer Method–II: BSA emission 350 nm; for Kq (bimolecular quenching rate constant), BSA binding, Stern–Volmer Method–I: Kq=KSV/τ0, τ0 = 10^−8 S, BSA emission 350 nm (λex 278 nm); for P (ratio of fluorescence quantum efficiency), BSA binding: intercept of F/F0 vs 1/[BSA]; for ΔGb°, BSA binding, Stern–Volmer Method–II: −RT ln Kass, T = 298 K
T1 construct: purchased Sigma Aldrich
Procedure: The DNA/BSA binding properties were acquired from the emission spectral titration with the supporting of the JASCO FP-6300 spectrofluorometer between the 200 and 800 nm regions. It is additional evidence for the complexes’ manner of DNA binding. While DNA (200 µM) was present or absent, we vigilantly monitored the intensity variations between 610 nm and 510 nm during the initial emission and excitation of EB [27]. Correspondingly, the emission titrations for BSA interaction with different concentrations between 2.5 μM and 25 μM for all samples were conducted in a Tris-HCl buffer solution (pH: 7.4) between the regions of 300 nm and 400 nm. […]
experiments were measured for BSA interaction in the range of 300 –400 nm, using a fluorescence cuvette with a path length of 1 cm. all test compounds have no substantial fluorescence emission rate in any of the above ranges in Tris-HCl buffer solution (pH=7.2).
Therefore, BSA interaction tests are not impaired in the interaction with the complexes [ 28].
In the experiment, the emission of BSA solution (25 µM) in 50 mM Tris –HCl /1 mM NaCl […]
While raising the test compound ’s concentration (0-25 µM), the intensity of the BSA decreases due to static quenching in the generation of ground state BSA – complex adduct. The observations of the BSA molecule at the excitation wavelength (278 nm) and at the emission wavelength (350 nm) that both of […]
Fcorr = Fobs × e[(Aex× dex) + (Aem× dem)]/ 2 = Fobs × e(Aex + Aem)/ 2 (S12) Fcorr and F obs are represented as the IFE-corrected emission and observed (uncorrected) emission intensities, respectively. d ex and d em are denoted as the cuvette path lengths in the […]
excitation and emission directions, respectively. Also, the alteration in absorbance (OD) at the excitation and fluorescence wavelengths, respectively, is sometimes referred to as A ex and […]
F = 1+KSV [Q] = 1+ Kq τ0 (S13)
Where [Q] is represented as the sample concentration (quencher), the emission intensities F 0 and F are those in the […] of the quencher, respectively.
F ) = log Kass + nlog [Q] (S14)
KEB[EB] = Kapp[compound] (S15)
∆F = (F 0–F), Equation (16) was utilized to examine the Lineweaver –Burk binding constant (KLB) from the linear regression plot of 1/(F0–F) vs 1/[Q]. […]
γ =(F0–F)/F0, CF is denoted as the concentration of sample alone, the linear regression plot of (γ/CF) vs γ was employed to support equation (17), which was used to determine the values of KSA and n, respectively.
2.2.6. FRET calculation by Förster’s theory
Calculating FRET (Fluorescence Resonance Energy Transfer) is a crucial approach in determining the critical distance (r) between donor (BSA) and acceptor (test compound) molecules, in which the binding affinity between the BSA-complex systems could be evalued according to Förster’s theory. The overlap of the emission spectrum of the donor (BSA) and the absorption spectrum of the acceptor (compound) describes that the acceptor (compound) group may get excited as a result of the excited donor's (BSA) energy being lost to the ground

T1 sequence (P02769 25-607): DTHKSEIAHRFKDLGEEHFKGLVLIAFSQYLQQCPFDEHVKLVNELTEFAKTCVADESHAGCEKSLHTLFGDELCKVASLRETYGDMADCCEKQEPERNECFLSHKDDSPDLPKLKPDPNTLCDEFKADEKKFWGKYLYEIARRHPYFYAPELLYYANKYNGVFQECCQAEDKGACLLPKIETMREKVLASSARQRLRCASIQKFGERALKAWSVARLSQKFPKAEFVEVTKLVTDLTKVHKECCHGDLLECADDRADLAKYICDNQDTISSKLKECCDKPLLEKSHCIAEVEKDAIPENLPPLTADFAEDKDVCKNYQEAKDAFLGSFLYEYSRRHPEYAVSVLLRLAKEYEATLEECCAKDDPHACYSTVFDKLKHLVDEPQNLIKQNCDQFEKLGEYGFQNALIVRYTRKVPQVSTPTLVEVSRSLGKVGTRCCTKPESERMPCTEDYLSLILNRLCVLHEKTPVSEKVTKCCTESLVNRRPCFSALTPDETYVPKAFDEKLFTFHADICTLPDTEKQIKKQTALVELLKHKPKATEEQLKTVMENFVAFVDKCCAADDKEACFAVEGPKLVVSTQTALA

SMILES	% Inhibition, DPPH ([1]; 40 µM) [%]	% Inhibition, DPPH ([1]; 80 µM) [%]	% Inhibition, DPPH ([1]; 120 µM) [%]	% Inhibition, DPPH ([1]; 160 µM) [%]	% Inhibition, DPPH ([1]; 200 µM) [%]	% Inhibition, DPPH ([1]; 240 µM) [%]	IC50 [1] [µM]	KSV (Stern-Volmer binding constant), BSA binding, Method–I (BSA) [M⁻¹]	Kass (association binding constant), BSA binding, Stern–Volmer Method–II (BSA) [M⁻¹]	n (number of binding sites), BSA binding, Stern–Volmer Method–II (BSA)	Kq (bimolecular quenching rate constant), BSA binding, Stern–Volmer Method–I (BSA) [M⁻¹ s⁻¹]	P (ratio of fluorescence quantum efficiency), BSA binding (BSA)	ΔGb°, BSA binding, Stern–Volmer Method–II (BSA)
[Cu+2].[O-]c1ccccc1N=Cc1ccc(N2CCOCC2)cc1.[O-]c1ccccc1N=Cc1ccc(N2CCOCC2)cc1.c1cnc2c(c1)ccc1cccnc12 [(1b), [Cu^II(L)2(phen)]]	18.11	30.88	36.82	52.42	58.65	70.12	160	95640	71990	1.021	9.564e+12	0.322	–27.71 kJM^−1
[O-]c1ccccc1N=Cc1ccc(N2CCOCC2)cc1.[O-]c1ccccc1N=Cc1ccc(N2CCOCC2)cc1.[Zn+2].c1cnc2c(c1)ccc1cccnc12 [(2b), [Zn^II(L)2(phen)]]	12.82	24.88	30.89	40.27	50.12	60.66	200	79350	59840	1.009	7.935e+12	0.285	–27.25 kJM^−1
Oc1ccccc1N=Cc1ccc(N2CCOCC2)cc1 [(HL), 2-(4-morpholinobenzylideneamino)phenol]	09.45	15.21	26.36	34.56	39.41	52.45		26390		0.958	2.639e+12	0.225	–23.86 kJM^−1

Reference: PMC9775322, “An Integrated Analysis of Mechanistic Insights into Biomolecular Interactions and Molecular Dynamics of Bio-Inspired Cu(II) and Zn(II) Complexes towards DNA/BSA/SARS-CoV-2 3CL^pro by Molecular Docking-Based Virtual Screening and FRET Detection” (Biomolecules, 2022)
